Results on 3 compounds are retold here after PubChem BioAssay AID2067 (The Scripps Research Institute Molecular Screening Center, 2009).

A word on the IC50: it is the midpoint of a concentration-inhibition curve. As usually defined, the Ki is the equilibrium dissociation constant of an inhibitor or competing ligand from its target.

This assay concerns the target Collagenase 3 (Homo sapiens) (UniProt P45452). Put plainly: potency against MMP13, MMP2, MMP3, MMP14 – biochemical, probe development, late stage results, selectivity assay for MMP13 inhibitor project, late-stage follow-up (AID 2067). Particulars: recombinant MMP panel, fTHP FRET substrate cleavage, MMP-13; for Ki: Ki assay, MMP-13 Ki, Lineweaver-Burk.

Consider `O=c1[nH]c(SCc2ccc(Cl)cc2)nc2c1CCC2`, for which the IC50 was 3360 nM and the Ki came to 3800 nM.

On to `Cc1ccc(CSc2nc3c(c(=O)[nH]2)CCC3)cc1`, for which the IC50 is 2440 nM and the Ki came out at 840 nM.

On to `COC(=O)c1ccc(CSc2nc3c(c(=O)[nH]2)CCC3)cc1`, for which the IC50 was 2820 nM and the Ki came out at 1500 nM.
